Measurements published in patent publication US11220503B2, “Phthalazine derivatives, preparation method, pharmaceutical composition and usage thereof” (Shanghai SIMR Biotech Co., Ltd., priority 2015, dated 2022).
Read-outs that look alike come from different tables or passages of the source.

Experiments:
α5β3γ2 receptor = target: T1, α5β3γ2 receptor (Homo sapiens, UniProt P18507+P31644); assay: Cell level screening: whole cell patch clamp, inverse agonist efficacy; type: cell-based; conditions: for inverse agonism efficacy of the compound/α5IA inverse agonism efficacy: ratio to α5IA, compound 100 nM
T1 construct: expressed in transfected cells; host or cells: HEK-293 (stably transfected)
T1 sequence (P31644 32-462): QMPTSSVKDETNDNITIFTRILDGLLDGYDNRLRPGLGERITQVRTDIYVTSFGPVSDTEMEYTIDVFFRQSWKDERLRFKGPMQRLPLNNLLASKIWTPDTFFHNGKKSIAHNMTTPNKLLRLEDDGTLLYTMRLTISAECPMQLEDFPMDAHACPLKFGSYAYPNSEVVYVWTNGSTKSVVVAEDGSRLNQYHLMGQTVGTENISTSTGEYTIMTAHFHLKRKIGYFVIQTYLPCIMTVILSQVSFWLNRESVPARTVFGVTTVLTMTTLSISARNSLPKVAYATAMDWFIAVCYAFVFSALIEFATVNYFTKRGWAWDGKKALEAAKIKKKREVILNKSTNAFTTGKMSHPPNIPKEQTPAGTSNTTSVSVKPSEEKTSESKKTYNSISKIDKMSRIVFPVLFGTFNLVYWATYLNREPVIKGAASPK
T1 sequence (P28472 26-473 isoform P28472-2 partner limits assumed): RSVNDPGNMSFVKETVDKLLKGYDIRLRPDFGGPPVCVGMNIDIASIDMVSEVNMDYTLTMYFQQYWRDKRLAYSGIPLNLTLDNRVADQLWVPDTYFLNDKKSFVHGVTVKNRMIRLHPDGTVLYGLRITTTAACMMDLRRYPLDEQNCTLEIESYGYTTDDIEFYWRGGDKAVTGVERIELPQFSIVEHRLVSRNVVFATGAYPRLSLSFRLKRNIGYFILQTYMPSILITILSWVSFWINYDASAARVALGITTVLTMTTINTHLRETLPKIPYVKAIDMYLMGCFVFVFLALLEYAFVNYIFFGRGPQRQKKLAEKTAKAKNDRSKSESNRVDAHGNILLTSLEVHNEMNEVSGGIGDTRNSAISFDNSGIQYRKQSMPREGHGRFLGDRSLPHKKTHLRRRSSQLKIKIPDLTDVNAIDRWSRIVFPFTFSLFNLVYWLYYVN
T1 sequence (P18507 40-475): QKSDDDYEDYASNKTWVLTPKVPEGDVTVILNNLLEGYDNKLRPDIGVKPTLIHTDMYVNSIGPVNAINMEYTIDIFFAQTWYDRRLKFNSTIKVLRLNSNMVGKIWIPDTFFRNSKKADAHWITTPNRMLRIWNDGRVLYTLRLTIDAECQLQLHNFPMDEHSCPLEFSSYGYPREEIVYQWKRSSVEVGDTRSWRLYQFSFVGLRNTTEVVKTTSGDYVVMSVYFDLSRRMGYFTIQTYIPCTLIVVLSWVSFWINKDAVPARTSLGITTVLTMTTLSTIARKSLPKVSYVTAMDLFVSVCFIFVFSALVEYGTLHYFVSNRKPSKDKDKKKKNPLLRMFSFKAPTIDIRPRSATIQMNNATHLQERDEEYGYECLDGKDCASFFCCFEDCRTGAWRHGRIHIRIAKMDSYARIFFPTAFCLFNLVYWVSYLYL

[1] = Compound tissue distribution (brain/plasma); type: in vivo; conditions: brain and plasma, po; rat, 10 mg/kg p.o. in 50% PEG400, one hour; read-out: Brain/Plasma ratio
Method: (§1) The distribution ratio of blood brain tissue was calculated by comparing the concentration of compound in rat plasma and brain tissue. The experimental animals were divided into two groups, the plasma group and the brain group, each with three. To measure brain to plasma ratio, rats were administed compounds in 50% PEG400 p.o. at a dose of 10 mg compound to be tested/kg. One hour later, plasma and brain samples were taken. Concentrations of compounds in brain and plasma were detected using LC-MS/MS-AJ (Triple Quad 5500) assay and analyzed using Phoenix WinNonlin.
We also measured the brain to plasma ratio of compound #24. The experimental animals were divided into two groups, the plasma group and the brain group, each with three. To measure the brain to plasma ratio, Rats were administered compounds (1 mg/kg in 5% DMSO+70% PEG400+25% H2O p.o.). One hour later, plasma and brain samples were taken. Concentrations of compounds in brain and plasma were detected using a LC-MS/MS-AJ (Triple Quad 5500) assay and analyzed using Phoenix WinNonlin.

[2] = Tissue distribution of the compounds (brain/plasma); type: in vivo; conditions: brain and plasma, po; rat, 10 mg/kg p.o. in 50% PEG400, one hour; read-out: Brain/Plasma ratio
Method: as §1, with “Rats” for “To measure brain to plasma ratio, rats”, “LC-MS/MS-A” for “LC-MS/MS-AJ”

[3] = HEK293, compound 100 nM, GABA 0.05-0.1 μM, HEK293 α5β3γ2, clamped at −60 mV, (Ipost-Ipre)*100/Ipre, read-out: inverse agonism efficacy(%)

Structure (SMILES)	inhibition at 0.1 µM (α5β3γ2 receptor; [3])	inhibition at 0.01 µM (α5β3γ2 receptor; dose-efficacy, Con. 10 nM, single replicates, read-out: Inverse agonism-Efficacy)	inhibition at 0.05 µM (α5β3γ2 receptor; dose-efficacy, Con. 50 nM, single replicates, read-out: Inverse agonism-Efficacy)	inhibition at 0.1 µM (α5β3γ2 receptor; dose-efficacy, Con. 100 nM, single replicates, read-out: Inverse agonism-Efficacy)	inhibition at 1 µM (α5β3γ2 receptor; dose-efficacy, Con. 1000 nM, single replicates, read-out: Inverse agonism-Efficacy)	inverse agonism efficacy of the compound/α5IA inverse agonism efficacy (α5β3γ2 receptor)	Kp at 1 h [1]	Kp at 1 h [2]
CCNC(=O)c1ccc(COc2nn3c(-c4cc(C)on4)nnc3c3ccccc23)nc1 [Compound 07, N-ethyl-6-(((3-(5-methylisoxazol-3-yl)-[1,2,4]triazolo[3,4-a]phthalazin-6-yl)oxy)methyl)nicotinamide]	24.8%	25.5%	40%	45.8%	39.1%	1.1	< 0.01	< 0.01
COCCNC(=O)c1ccc(COc2nn3c(-c4cc(C)on4)nnc3c3ccccc23)nc1 [Compound 08, N-(2-methoxyethyl)-6-(((3-(5-methylisoxazol-3-yl)-[1,2,4]triazolo[3,4-a]phthalazin-6-yl)oxy)methyl)nicotinamide]	34%					1.508	< 0.01	< 0.01
